Data from US9958453B2, “Biological sensing method for separating biomolecule” (priority 2015, dated 2018).

Legend:
[1] = system: UlaG protein; experiment: Phage display peptide screening against UlaG protein on ELISA plate; type: binding; conditions: UlaG protein expressed by Escherichia coli, purified, modified onto ELISA plate
From the text: The screening method of an amino acid according to an embodiment of the present invention included the following steps: • 1. UlaG protein was largely expressed by Escherichia coli • 2. The UlaG protein in step 1 was purified, and then modified onto an enzyme-linked immunosorbent assay (ELISA) plate. • 3. Phage display peptide system was used to perform the screening. The phage display peptide system used bacteriophages with various peptide segments to contact the UlaG protein. After a process of repeated binding, washing, eluting, amplifying, and re-binding, the bacteriophage that can bind to the UlaG protein was selected. • 4. The selected bacteriophage in step 3 was amplified and sequenced by polymerase chain reaction (PCR). The amino acid sequence that can bind to the UlaG protein was then obtained.
Therefore, an amino acid sequence including the sequence shown in SEQ ID NO: 1 or SEQ ID NO: 2 can be used in the recognition of the UlaG protein.

[2] = system: Streptococcus pneumoniae; experiment: Field-effect transistor biological sensing device, detecting of Streptococcus pneumoniae; type: binding, Streptococcus pneumoniae ATCC 49136; conditions: amino acid sequence modified onto field-effect transistor; broths of Streptococcus pneumoniae with different concentrations; FIG. 3
From the text: UlaG protein is expressed in the cell wall of Streptococcus pneumoniae. The following experimental example used the biological sensing device of the present invention to detect whether the sample included Streptococcus pneumoniae, and the detecting method included the following steps: • 1. The amino acid sequence including the sequence shown in SEQ ID NO: 1 was largely expressed by Escherichia coli. • 2. The amino acid sequence in step 1 was purified, and then modified onto a surface of a field-effect transistor. • 3. The field-effect transistor modified with the amino acid sequence in step 2 was contact to broths of Streptococcus pneumoniae with different concentrations, and the potential difference of the surface of the field-effect transistor modified was measured. The strain of Streptococcus pneumoniae used in this experimental example was ATCC 49136.
FIG. 2 is a schematic view of a biological sensing device 300 according to an embodiment of the present invention detecting a biomolecule 400. […]
FIG. 3 is a potential difference-bacterial concentration diagram of an embodiment of the present invention for the detecting experiment, which the bacterial concentration is represented by the number of colonies per milliliter (mL) of the broth. […] The Streptococcus pneumoniae can be detected by the change in the surface potential.

[3] = system: Streptococcus mutans; experiment: Field-effect transistor biological sensing device, comparative example Streptococcus mutans; type: binding; conditions: FIG. 4
Description: Furthermore, the present experimental example applied Streptococcus mutans as a comparative example using the abovementioned biological sensing device 300 and detecting method. The field-effect transistor modified with the amino acid sequence including the sequence shown in SEC) ID NO: 1 was contact to broths of Streptococcus mutans with different concentrations, and the potential difference of the surface of the field-effect transistor modified was measured.
FIG. 4 is a potential difference-bacterial concentration diagram of a comparative example for a detecting experiment, which the bacterial concentration is represented by the number of colonies per mL of the broth. […] Therefore, Streptococcus […] is not recognized by and bound to the amino acid sequence of the biological sensing device of the present invention.

| Substance | binding affinity to the UlaG protein [1] | potential difference of the surface of the field-effect transistor vs bacterial concentration [2] | potential difference of the surface of the field-effect transistor vs bacterial concentration ([3]; amino acid sequence modified onto field-effect transistor, broths of Streptococcus mutans with different concentrations) | reaction of the amino acid sequence with Streptococcus mutans ([3]; field-effect transistor device) |
| --- | --- | --- | --- | --- |
| SEQ ID NO: 2: short sequence of 7 amino acids, selected by phage display, that binds the UlaG protein (ERIMPVL; amino acid sequence bound to UlaG protein) | high binding affinities |  |  |  |
| SEQ ID NO: 1: short sequence of 7 amino acids, selected by phage display, that binds the UlaG protein; used on the field-effect transistor (ENIMPVL; amino acid sequence bound to UlaG protein) | high binding affinities | increased with the increase of the bacterial concentration | did not change accordingly with the increase of the bacterial concentration | does not react |
